Reference: US8124793B2, “Derivatives of ethylene methanedisulfonate as cancer chemotherapeutic agents” (priority 2007, dated 2012)

Columns and labels:
HOP-62 = experiment: NCI screen, growth of human tumor cells: Non-Small Cell Lung HOP-62; type: cell-based; conditions: HOP-62 (Non-Small Cell Lung), 10^−4 molar
Procedure, shortened: (§1)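 Percent-growth read-out from the NCI cancer cell screen; data annotated by cancer type and molar concentration, ≥60 points per compound.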

AS49/ATCC = experiment: NCI screen, growth of human tumor cells: Non-Small Cell Lung AS49/ATCC; type: cell-based; conditions: AS49/ATCC (Non-Small Cell Lung), 10^−4 molar
Description: (§2) In the NCI screening process, each compound was tested and described by a minimum of 60 data points. The test data include, but are not limited to the type of cancer, the molar concentration used in the screen, and the percent growth of the cancer. In some cases, NMR and elemental analysis were used for structural assignment.

SN12C = experiment: NCI screen, growth of human tumor cells: Renal Cancer SN12C; type: cell-based; conditions: SN12C
Description: as §2

MCF7/ADR-RES = experiment: NCI screen, growth of human tumor cells: Breast Cancer MCF7/ADR-RES; type: cell-based; conditions: MCF7/ADR-RES (Breast Cancer), 10^−4 molar
Description: as §2

NCI-H460 = experiment: NCI screen, growth of human tumor cells: Non-Small Cell Lung NCI-H460; type: cell-based; conditions: NCI-H460 (Non-Small Cell Lung), 10^−4 molar
Procedure, shortened: as §1

HCT-15 = experiment: NCI screen, growth of human tumor cells: Colon Cancer HCT-15; type: cell-based; conditions: HCT-15 (Colon Cancer), 10^−4 molar
Procedure, shortened: as §1

KM12 = experiment: NCI screen, growth of human tumor cells: Colon Cancer KM12; type: cell-based
Description: as §2

SK-MEL-5 = experiment: NCI screen, growth of human tumor cells: Melanoma SK-MEL-5; type: cell-based
Procedure, shortened: as §1

human cancer cells = experiment: NCI screen summary over the cancers tested (negative growth of human cancer cells); type: cell-based; conditions: cancers with negative growth / cancers tested
Description: as §2
The derivatives in the tables are grouped using the same category as in the tables 1-6.

RXF-393 = experiment: NCI screen, growth of human tumor cells: Renal Cancer RXF-393; type: cell-based; conditions: RXF-393 (Renal Cancer), 10^−4 molar
Description: as §2

SNB-75 = experiment: NCI screen, growth of human tumor cells: CNS Cancer SNB-75; type: cell-based; conditions: SNB-75 (CNS Cancer), 10^−4 molar
Procedure, shortened: as §1

U-251 = experiment: NCI screen, growth of human tumor cells: CNS Cancer U-251; type: cell-based; conditions: U-251 (CNS Cancer), 10^−4 molar
Procedure, shortened: as §1

M14 = experiment: NCI screen, growth of human tumor cells: Melanoma M14; type: cell-based; conditions: M14 (Melanoma), 10^−4 molar
Description: as §2

HL-60 (TB) = experiment: NCI screen, growth of human tumor cells: Leukemia HL-60 (TB); type: cell-based; conditions: HL-60 (TB) (Leukemia), 10^−4 molar
Description: as §2

SK-MEL-2 = experiment: NCI screen, growth of human tumor cells: Melanoma SK-MEL-2; type: cell-based
Description: as §2

SF-295 = experiment: NCI screen, growth of human tumor cells: CNS Cancer SF-295; type: cell-based; conditions: SF-295 (CNS Cancer), 10^−4 molar
Description: as §2

SF-539 = experiment: NCI screen, growth of human tumor cells: CNS Cancer SF-539; type: cell-based
Procedure, shortened: as §1

OVCAR-5 = experiment: NCI screen, growth of human tumor cells: Ovarian Cancer OVCAR-5; type: cell-based
Description: as §2

BT-549 = experiment: NCI screen, growth of human tumor cells: Breast Cancer BT-549; type: cell-based; conditions: BT-549 (Breast Cancer), 10^−4 molar
Description: as §2

OVCAR-3 = experiment: NCI screen, growth of human tumor cells: Ovarian Cancer OVCAR-3; type: cell-based; conditions: OVCAR-3 (Ovarian Cancer), 10^−4 molar
Procedure, shortened: as §1

ACHN = experiment: NCI screen, growth of human tumor cells: Renal Cancer ACHN; type: cell-based; conditions: ACHN, 10^−4 molar
Procedure, shortened: as §1

SR = experiment: NCI screen, growth of human tumor cells: Leukemia SR; type: cell-based; conditions: SR (Leukemia), 10^−4 molar
Procedure, shortened: as §1

HS 578T = experiment: NCI screen, growth of human tumor cells: Breast Cancer HS 578T; type: cell-based; conditions: HS 578T (Breast Cancer), 10^−4 molar
Description: as §2

DU-145 = experiment: NCI screen, growth of human tumor cells: Prostate Cancer DU-145; type: cell-based
Description: as §2

HCT-116 = experiment: NCI screen, growth of human tumor cells: Colon Cancer HCT-116; type: cell-based; conditions: HCT-116 (Colon Cancer), 10^−4 molar
Procedure, shortened: as §1

UACC-62 = experiment: NCI screen, growth of human tumor cells: Melanoma UACC-62; type: cell-based; conditions: UACC-62 (Melanoma), 10^−4 molar
Procedure, shortened: as §1

SF-268 = experiment: NCI screen, growth of human tumor cells: CNS Cancer SF-268; type: cell-based; conditions: SF-268 (CNS Cancer), 10^−4 molar
Procedure, shortened: as §1

MDA-MB-435 = experiment: NCI screen, growth of human tumor cells: Breast Cancer MDA-MB-435; type: cell-based; conditions: MDA-MB-435, 10^−4 molar
Description: as §2

SK-MEL-28 = experiment: NCI screen, growth of human tumor cells: Melanoma SK-MEL-28; type: cell-based; conditions: SK-MEL-28 (Melanoma), 10^−4 molar
Description: as §2

NCI-H23 = experiment: NCI screen, growth of human tumor cells: Non-Small Cell Lung NCI-H23; type: cell-based; conditions: NCI-H23, 10^−4 molar
Description: as §2

UO-31 = experiment: NCI screen, growth of human tumor cells: Renal Cancer UO-31; type: cell-based; conditions: UO-31 (Renal Cancer), 10^−4 molar
Description: as §2

COLO205 = experiment: NCI screen, growth of human tumor cells: Colon Cancer COLO205; type: cell-based; conditions: COLO205 (Colon Cancer), 10^−4 molar
Description: as §2

OVCAR-4 = experiment: NCI screen, growth of human tumor cells: Ovarian Cancer OVCAR-4; type: cell-based; conditions: OVCAR-4 (Ovarian Cancer), 10^−4 molar
Description: as §2

RPMI-8226 = experiment: NCI screen, growth of human tumor cells: Leukemia RPMI-8226; type: cell-based; conditions: RPMI-8226 (Leukemia), 10^−4 molar
Description: as §2

K562 = experiment: NCI screen, growth of human tumor cells: Leukemia K562; type: cell-based; conditions: K562 (Leukemia), 10^−4 molar
Procedure, shortened: as §1

EKVX = experiment: NCI screen, growth of human tumor cells: Non-Small Cell Lung EKVX; type: cell-based; conditions: EKVX
Description: as §2

HOP-18 = experiment: NCI screen, growth of human tumor cells: Non-Small Cell Lung HOP-18; type: cell-based
Description: as §2

NCI-H226 = experiment: NCI screen, growth of human tumor cells: Non-Small Cell Lung NCI-H226; type: cell-based
Procedure, shortened: as §1

## O=S1(=O)OCCOS(=O)(=O)C1Cl [MWC 91-6, ethylene chloromethanedisulfonate]
other
  melting point: 85 to 88 °C

## CC=CC(=O)C1(C2=C(Cl)C(=O)c3ccccc3C2=O)S(=O)(=O)OCCOS1(=O)=O [NSC 731264, ethylene crotonoyl-[3-chloro-1,4-naptho-2-quinolyl]-1,1-methanedisulfonate]
HOP-62
  percent of growth of human tumor cells: −56%
AS49/ATCC
  percent of growth of human tumor cells: −36%
SN12C; 10^−4 molar
  % Growth: −67%
SN12C; 10^−5 molar
  % Growth: −99%
SN12C; 10^−6 molar
  % Growth: −4%
MCF7/ADR-RES
  percent of growth of human tumor cells: 20%
NCI-H460
  percent of growth of human tumor cells: 10%
HCT-15
  percent of growth of human tumor cells: −59%
KM12; KM12, 10^−4 molar
  % Growth: −68%
KM12; KM12, 10^−5 molar
  % Growth: −75%
KM12; KM12, 10^−6 molar
  % Growth: 66%
SK-MEL-5; SK-MEL-5, 10^−4 molar
  % Growth: −53%
SK-MEL-5; SK-MEL-5, 10^−5 molar
  % Growth: 28%
Human cancer cells; 10^−4 M conc.
  Percentage of cancers showing negative growth cancers tested: 65%
Human cancer cells; 10^−5 M conc.
  Percentage of cancers showing negative growth cancers tested: 50%
Human cancer cells; 10^−6 M conc.
  Percentage of cancers showing negative growth cancers tested: 25%
RXF-393
  percent of growth of human tumor cells: −50%
SNB-75
  percent of growth of human tumor cells: −33%
U-251
  percent of growth of human tumor cells: −5%
M14
  percent of growth of human tumor cells: −6%
HL-60 (TB)
  percent of growth of human tumor cells: 17%
SK-MEL-2; SK-MEL-2, 10^−4 molar
  % Growth: 27%
SK-MEL-2; SK-MEL-2, 10^−5 molar
  % Growth: 49%
SF-295
  percent of growth of human tumor cells: −57%
SF-539; SF-539, 10^−4 molar
  % Growth: −73%
OVCAR-5; OVCAR-5, 10^−4 molar
  % Growth: −49%
OVCAR-5; OVCAR-5, 10^−5 molar
  % Growth: 51%
OVCAR-5; OVCAR-5, 10^−6 molar
  % Growth: 39%
OVCAR-5; OVCAR-5, 10^−7 molar
  % Growth: 46%
OVCAR-5; OVCAR-5, 10^−8 molar
  % Growth: 52%
BT-549
  percent of growth of human tumor cells: −52%
OVCAR-3
  percent of growth of human tumor cells: 5%
ACHN
  % Growth: −82%
SR
  percent of growth of human tumor cells: 7%
HS 578T
  percent of growth of human tumor cells: −12%
DU-145; DV-145, 10^−4 molar
  % Growth: −68%
DU-145; DV-145, 10^−5 molar
  % Growth: −96%
DU-145; DV-145, 10^−6 molar
  % Growth: 38%
HCT-116
  percent of growth of human tumor cells: 26%
UACC-62
  percent of growth of human tumor cells: −16%
SF-268
  percent of growth of human tumor cells: 7%
MDA-MB-435
  % Growth: −73%
SK-MEL-28
  percent of growth of human tumor cells: −59%
NCI-H23
  % Growth: −72%
UO-31
  percent of growth of human tumor cells: 12%
COLO205
  percent of growth of human tumor cells: 30%
OVCAR-4
  percent of growth of human tumor cells: 19%
RPMI-8226
  percent of growth of human tumor cells: −18%
K562
  percent of growth of human tumor cells: 19%

## O=S1(=O)OCCOS(=O)(=O)C1Br [NSC 648305, ethylene bromomethanedisulfonate]
EKVX; 10^−4 molar
  % Growth: 51%
EKVX; 10^−5 molar
  % Growth: 56%
EKVX; 10^−6 molar
  % Growth: 59%
EKVX; 10^−7 molar
  % Growth: 60%
EKVX; 10^−8 molar
  % Growth: 65%
other
  melting point: 128 to 134 °C
Human cancer cells; 10^−4 M conc.
  Percentage of cancers showing negative growth cancers tested: 10^−4 M conc. = 1/3 = 33%
HOP-18; HOP-18, 10^−4 molar
  % Growth: −61%
HOP-18; HOP-18, 10^−5 molar
  % Growth: 68%
HOP-18; HOP-18, 10^−6 molar
  % Growth: 49%
HOP-18; HOP-18, 10^−7 molar
  % Growth: 63%
HOP-18; HOP-18, 10^−8 molar
  % Growth: 63%
NCI-H226; NCI-H226, 10^−4 molar
  % Growth: 7%
NCI-H226; NCI-H226, 10^−5 molar
  % Growth: 16%
NCI-H226; NCI-H226, 10^−6 molar
  % Growth: 20%
NCI-H226; NCI-H226, 10^−7 molar
  % Growth: 21%
NCI-H226; NCI-H226, 10^−8 molar
  % Growth: 43%

## O=S1(=O)OCCOS(=O)(=O)C1(Br)Br [NSC 648304, ethylene dibromomethanedisulfonate]
EKVX; 10^−4 molar
  % Growth: 51%
EKVX; 10^−5 molar
  % Growth: 57%
EKVX; 10^−6 molar
  % Growth: 58%
EKVX; 10^−7 molar
  % Growth: 62%
EKVX; 10^−8 molar
  % Growth: 58%
other
  melting point: 214 to 220 °C
Human cancer cells; 10^−4 M conc.
  Percentage of cancers showing negative growth cancers tested: 10^−4 M conc. = 1/3 = 33%
HOP-18; HOP-18, 10^−4 molar
  % Growth: 53%
HOP-18; HOP-18, 10^−5 molar
  % Growth: 75%
HOP-18; HOP-18, 10^−6 molar
  % Growth: 52%
HOP-18; HOP-18, 10^−7 molar
  % Growth: 14%
HOP-18; HOP-18, 10^−8 molar
  % Growth: 42%
NCI-H226; NCI-H226, 10^−4 molar
  % Growth: −1%
NCI-H226; NCI-H226, 10^−5 molar
  % Growth: 49%
NCI-H226; NCI-H226, 10^−6 molar
  % Growth: 47%
NCI-H226; NCI-H226, 10^−7 molar
  % Growth: 54%
NCI-H226; NCI-H226, 10^−8 molar
  % Growth: 62%

## O=S1(=O)OCCOS(=O)(=O)C1I [NSC 648309, ethylene iodomethanedisulfonate]
other
  melting point: 144 to 160 °C
Human cancer cells; 10^−4 M conc.
  Percentage of cancers showing negative growth cancers tested: 10^−4 M conc. = 0/2 = 0%
UACC-62
  percent of growth of human tumor cells: 17%
NCI-H226; NCI-H226 (Non-Small Cell Lung), 10^−4 molar
  percent of growth of human tumor cells: 20%

## O=S1(=O)OCCOS(=O)(=O)C1F [NSC 665942, ethylene fluoromethanedisulfonate]
other
  melting point: 84 to 86 °C
Human cancer cells; 10^−4 M conc.
  Percentage of cancers showing negative growth cancers tested: 10^−4 M conc. = 0/1 = 0%
SF-539; SF-539 (CNS Cancer), 10^−4 molar
  percent of growth of human tumor cells: 28%
